Test results as given in PMC9230645, “Discovery of GSK3β Inhibitors through In Silico Prediction-and-Experiment Cycling Strategy, and Biological Evaluation” (Molecules, 2022).

Key:
GSK3β [1] = target: T1, GSK3β (Homo sapiens, UniProt P49841); experiment: GSK3β kinase assay (TR-FRET / Lance HTRF); assay type: biochemical; conditions: for inhibition at 0.5 µM: 0.5 μM compound; for inhibition at 5 µM: 5 μM compound; for IC50: Table 1, means ± SD (n = 2)
T1 construct: purchased Carna Biosciences
Experimental: The GSK3β inhibitory activities of the virtually-selected 3000 compounds were screened by a Lance HTRF assay. At a concentration of 10 μM, the single-point screening signal-to-noise (S/N) ratio, Z factor, and Z’ factor of the assay was 7.3, 0.48 and 0.61, respectively.

GSK3β [2] = target: T1, GSK3β; experiment: Five-by-five-concentration kinetic analysis of GSK3β inhibition versus ATP (Lineweaver–Burk); assay type: biochemical
GSK3β [3] = target: T1, GSK3β; experiment: Reversibility assay (dilution method); assay type: biochemical; conditions: pre-incubated with 1 µM for 30 min, then diluted
Experimental: Figure 3 In vitro assay. […] (b) Competitive inhibition by cpd1 and SB216873. Compounds were tested using 4-point 2-fold serial dilution, starting from 1 µM or 0.25 µM at 5 different concentration of ATP (200, 100, 50, 33.3, and 25 µM). (c) Reversibility test.
The in vitro enzyme TR-FRET (time-resolved fluorescence energy transfer) assays were performed in 384-well white plates (Greiner) at room temperature (25 °C) using an HTS system from Biomek FX (Beckman Coulter) and a Stella robot. The assay was performed in a final volume of 10 µL in a kinase buffer of 50 mM HEPES, pH 7.5, 1 mM EGTA, 10 mM MgCl2, 2 mM DTT, and 0.01% Tween-20. The 3000 virtually-selected compounds in the 5 mM DMSO stock were diluted into desired concentrations with kinase buffer. A total of 5 µL of GSK3β (Carna Biosciences, 0.5 ng/well) and 2.5 µL of compounds were added to the assay plates and, then, 2.5 µL of the ULight-GS Peptide (Ser641/pSer657, […](pS)ED, #TRF0131 PerkinElmer, 50 nM final concentration)/ATP mixture were added. […] After incubation for 1 h, the fluorescence signal was read in excitation at 320 nm with an emission at 665 nm with the Envision Multilabel Plate Reader (PerkinElmer). Experimental data from dose–response curves were analyzed by nonlinear regression analysis with GraphPad Prism, version 7.00 for Windows, and the IC50 values were obtained. […]

Wnt/β-catenin signaling = experiment: HEK293 TOP flash reporter assay; assay type: cell-based; conditions: 5 µM, HEK293 TOP flash reporter cells, 18 h
Experimental: The pharmacologic inhibition of GSK3β’s activity can lead to β-catenin stabilization and subsequently activate Wnt/β-catenin signaling. To measure the inhibitory activities of the compounds selected in GSK3β enzyme-based high-throughput screening, these were treated in HEK293 TOP flash reporter cells at various concentrations.
The HEK293 reporter cells (HEK293 cells containing the chromosomally incorporated TOPflash gene) were provided by KY Choi (Yonsei University, Seoul, Korea). The HEK293 reporter cells were cultured in DMEM (Gibco) supplemented with 10% FBS (Gibco). To test the activates of GSK3β inhibition for hit compounds, HEK293 reporter cells were seeded into 96-well black polystyrene plates (Greiner Bio-One, Kremsmünster, Austria) at 1.5 × 10^4 cells per well and cultured for 24 h. Hit compounds, a positive control (CHIR99021, SelleckChem, Houston, TX, USA) or control (DMSO) were added to the wells at the indicated concentrations. After 18 h, the plates were assayed for firefly luciferase activity; relative reporter activity was determined after the data were normalized relative to the value of the WST-1 (Takara Korea Biomedical Inc., Seoul, Korea) cell viability analysis. Statistical analyses were performed using Prism 8 (GraphPad Software). […]

T1 sequence (P49841 whole entry): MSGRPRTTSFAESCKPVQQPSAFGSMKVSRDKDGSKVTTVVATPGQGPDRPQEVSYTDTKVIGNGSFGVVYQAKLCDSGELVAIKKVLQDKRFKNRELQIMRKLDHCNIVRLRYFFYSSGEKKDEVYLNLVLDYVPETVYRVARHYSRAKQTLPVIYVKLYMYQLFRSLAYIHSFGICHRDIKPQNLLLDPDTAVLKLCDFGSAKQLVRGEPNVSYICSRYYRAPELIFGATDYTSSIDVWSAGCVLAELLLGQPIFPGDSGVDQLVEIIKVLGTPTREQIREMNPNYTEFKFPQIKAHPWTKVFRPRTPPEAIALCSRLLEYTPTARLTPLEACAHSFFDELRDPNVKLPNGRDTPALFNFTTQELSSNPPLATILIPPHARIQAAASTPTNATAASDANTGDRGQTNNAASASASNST

SMILES: Cc1c(CNc2cc(-c3ccccc3F)nc3ccnn23)cnn1C [Compound 4]
- inhibition at 0.5 µM (GSK3β [1]): 57%
- inhibition at 5 µM (GSK3β [1]): 96%
- IC50 (GSK3β [1]): 347 ± 56 nM

SMILES: Cn1cc(C2=C(c3ccc(Cl)cc3Cl)C(=O)NC2=O)c2ccccc21 [8 (SB216763), SB216763, reference compound]
- inhibition at 0.5 µM (GSK3β [1]): 61%
- inhibition at 5 µM (GSK3β [1]): 100%

SMILES: Cc1cc(NCCCNc2cccnc2)n2nccc2n1 [Compound 7]
- inhibition at 0.5 µM (GSK3β [1]): 30%
- inhibition at 5 µM (GSK3β [1]): 90%
- IC50 (GSK3β [1]): 1030 ± 66 nM

SMILES: Cc1nc[nH]c1CSCCNc1cc(-c2ccccc2)nc2ccnn12 [Compound 2]
- inhibition at 0.5 µM (GSK3β [1]): 78%
- inhibition at 5 µM (GSK3β [1]): 100%
- IC50 (GSK3β [1]): 211 ± 55 nM

SMILES: CCc1cc(NCc2scnc2-c2ccccc2)n2nccc2n1 [Compound 6]
- inhibition at 0.5 µM (GSK3β [1]): 45%
- inhibition at 5 µM (GSK3β [1]): 91%
- IC50 (GSK3β [1]): 730 ± 113 nM

SMILES: COCc1cc(NCc2nnn[nH]2)n2nccc2n1 [Compound 5]
- inhibition at 0.5 µM (GSK3β [1]): 38%
- inhibition at 5 µM (GSK3β [1]): 95%
- IC50 (GSK3β [1]): 701 ± 118 nM

SMILES: CCc1nccn1CCCNc1cc(-c2ccc(F)cc2)nc2ccnn12 [Compound 1, N-(3-(2-ethyl-1H-imidazol-1-yl)propyl)-5-(4-fluorophenyl)pyrazolo[1,5-a]pyrimidin-7-amine]
- inhibition at 0.5 µM (GSK3β [1]): 100%
- inhibition at 5 µM (GSK3β [1]): 100%
- IC50 (GSK3β [1]): 37 ± 6 nM
- Ki (GSK3β [2]; 5 ATP concentrations (200, 100, 50, 33.3, 25 µM), read-out: slope inhibition constant K is): 41.8 nM
- inhibition pattern of GSK3β-catalyzed phosphorylation (GSK3β [2]; versus ATP): competitive
- enzyme-binding reversibility (GSK3β [3]): reversible
- TOP flash activity induction (Wnt/β-catenin signaling): 3.5 fold
